Test results as given in patent US9884814B2, “Acylguanidines for treating osteoarthritis” (Merck Patent GmbH, priority 2013, dated 2018).

Test system: CAR-induced swelling, rat knee joint
Settings: intra-articular, 30 minutes before CAR, TAC 10 μg/joint
Protocol: In order to induce an inflammation reaction, a carrageenan solution (CAR, 1%, 50 μl) was injected intra-articularly on one side into a rat knee joint. The uninjected side was used for control purposes. Six animals per group were used.
The specific cathepsin D inhibitors according to the invention were administered out intra-articularly 30 minutes before the CAR.

SMILES: C[C@]12C=CC(=O)C=C1CC[C@H]1[C@@H]3C[C@@H](O)[C@](O)(C(=O)CO)[C@@]3(C)C[C@H](O)[C@@]12F [TAC, Triamcinolone]
- reduction of CAR-induced swelling: capable of reducing the CAR-induced swelling
